The text below walks through data of paper PMC2363649, “MDR1 causes resistance to the antitumour drug miltefosine” (British Journal of Cancer, 2001).

The target of one experiment is T1, ABC transporter YvcC (Bacillus subtilis, UniProt O06967).
T1 construct: gene bmrA
T1 sequence (O06967 1-589): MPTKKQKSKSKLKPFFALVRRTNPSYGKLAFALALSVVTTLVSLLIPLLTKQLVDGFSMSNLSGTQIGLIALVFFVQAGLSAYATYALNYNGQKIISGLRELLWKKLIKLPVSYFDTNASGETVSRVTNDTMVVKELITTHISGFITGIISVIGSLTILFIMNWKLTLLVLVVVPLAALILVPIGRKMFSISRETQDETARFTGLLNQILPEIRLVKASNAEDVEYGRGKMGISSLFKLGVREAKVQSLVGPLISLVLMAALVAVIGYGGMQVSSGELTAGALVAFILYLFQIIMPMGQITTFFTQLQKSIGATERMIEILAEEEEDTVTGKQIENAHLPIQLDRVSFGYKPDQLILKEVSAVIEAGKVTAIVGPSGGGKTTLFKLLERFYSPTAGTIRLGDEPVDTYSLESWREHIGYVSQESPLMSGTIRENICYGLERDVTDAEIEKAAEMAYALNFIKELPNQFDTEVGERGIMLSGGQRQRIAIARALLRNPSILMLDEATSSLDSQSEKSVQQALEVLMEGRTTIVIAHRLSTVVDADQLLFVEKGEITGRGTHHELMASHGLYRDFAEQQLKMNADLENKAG
In words: binding Kd (data not shown; method not stated).

A further experiment concerns the target T2, P-glycoprotein (PGP) (Cricetulus griseus, UniProt P21448).
T2 construct: gene ABCB1; highly purified PGP from CHR B30 cells, labelled with MIANS at two conserved cysteine residues within the Walker A motifs
The experiment is described as follows: MIANS-PGP fluorescence quenching titration. Type of experiment: binding.

The Kd is the free concentration of one partner at which half of the binding sites on the other are occupied at equilibrium, for simple one-to-one binding. Lower therefore signals a tighter complex.

T2 sequence (P21448 whole entry): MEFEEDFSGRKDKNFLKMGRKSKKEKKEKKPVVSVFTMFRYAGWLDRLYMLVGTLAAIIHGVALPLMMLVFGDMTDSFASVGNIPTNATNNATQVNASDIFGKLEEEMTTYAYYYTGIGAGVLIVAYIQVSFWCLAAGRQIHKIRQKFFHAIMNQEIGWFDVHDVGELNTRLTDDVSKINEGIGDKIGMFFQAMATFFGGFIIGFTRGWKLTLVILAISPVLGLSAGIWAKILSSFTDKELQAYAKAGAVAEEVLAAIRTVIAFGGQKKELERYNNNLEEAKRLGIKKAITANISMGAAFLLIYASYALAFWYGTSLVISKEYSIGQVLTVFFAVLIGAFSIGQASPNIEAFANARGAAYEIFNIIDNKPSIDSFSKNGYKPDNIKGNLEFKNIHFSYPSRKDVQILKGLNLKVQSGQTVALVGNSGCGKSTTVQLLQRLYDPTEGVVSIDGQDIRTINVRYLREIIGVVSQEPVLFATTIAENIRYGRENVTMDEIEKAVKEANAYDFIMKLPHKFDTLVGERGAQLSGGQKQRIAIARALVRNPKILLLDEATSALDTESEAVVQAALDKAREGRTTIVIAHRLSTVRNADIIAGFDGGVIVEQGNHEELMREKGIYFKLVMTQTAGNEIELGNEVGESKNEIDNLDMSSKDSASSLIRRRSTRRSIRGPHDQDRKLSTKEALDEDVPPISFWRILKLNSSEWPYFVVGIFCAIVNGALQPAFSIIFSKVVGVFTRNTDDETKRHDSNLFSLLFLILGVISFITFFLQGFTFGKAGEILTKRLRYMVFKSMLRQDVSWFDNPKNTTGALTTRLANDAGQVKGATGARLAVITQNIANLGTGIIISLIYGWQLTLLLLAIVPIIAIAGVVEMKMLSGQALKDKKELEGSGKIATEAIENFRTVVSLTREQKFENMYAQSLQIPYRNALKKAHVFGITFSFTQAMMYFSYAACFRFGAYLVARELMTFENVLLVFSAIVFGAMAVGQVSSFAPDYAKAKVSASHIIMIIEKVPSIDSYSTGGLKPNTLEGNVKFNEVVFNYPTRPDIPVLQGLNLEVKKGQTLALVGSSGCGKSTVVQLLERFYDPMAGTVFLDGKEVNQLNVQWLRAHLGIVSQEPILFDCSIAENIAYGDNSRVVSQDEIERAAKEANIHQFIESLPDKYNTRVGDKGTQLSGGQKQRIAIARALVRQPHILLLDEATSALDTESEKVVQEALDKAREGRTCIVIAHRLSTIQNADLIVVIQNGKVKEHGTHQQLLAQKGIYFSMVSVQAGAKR

Regarding `CCCCCCCCCCCCCCCCOP(=O)([O-])OCC[N+](C)(C)C` [miltefosine], the figures for the dissociation constant Kd at ABC transporter YvcC and on P-glycoprotein (PGP) were 2 to 3 µM and around 7 µM, respectively.
